{"source": "patent US12049467B2", "about": "(The Johns Hopkins University, priority 2021, dated 2024)", "data": [{"molecular_target": "T1, GABAA (α3β2γ2) subtype (Homo sapiens, UniProt P18507+P34903)", "T1 construct": "expressed in transfected cells", "T1 sequence (P34903 29-492)": "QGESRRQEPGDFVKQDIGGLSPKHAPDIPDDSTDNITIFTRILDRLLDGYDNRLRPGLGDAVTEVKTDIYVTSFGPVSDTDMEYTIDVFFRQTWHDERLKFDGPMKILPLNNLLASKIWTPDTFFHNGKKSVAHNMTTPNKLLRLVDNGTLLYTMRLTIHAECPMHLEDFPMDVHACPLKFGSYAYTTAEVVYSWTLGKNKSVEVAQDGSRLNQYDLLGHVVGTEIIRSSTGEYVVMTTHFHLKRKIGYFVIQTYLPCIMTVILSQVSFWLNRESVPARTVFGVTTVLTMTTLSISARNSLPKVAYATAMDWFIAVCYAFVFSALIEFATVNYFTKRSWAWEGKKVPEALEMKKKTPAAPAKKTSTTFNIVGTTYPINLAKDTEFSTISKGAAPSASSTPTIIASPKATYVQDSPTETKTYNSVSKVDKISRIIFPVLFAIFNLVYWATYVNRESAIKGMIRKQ", "T1 sequence (P47870 25-512 partner limits assumed)": "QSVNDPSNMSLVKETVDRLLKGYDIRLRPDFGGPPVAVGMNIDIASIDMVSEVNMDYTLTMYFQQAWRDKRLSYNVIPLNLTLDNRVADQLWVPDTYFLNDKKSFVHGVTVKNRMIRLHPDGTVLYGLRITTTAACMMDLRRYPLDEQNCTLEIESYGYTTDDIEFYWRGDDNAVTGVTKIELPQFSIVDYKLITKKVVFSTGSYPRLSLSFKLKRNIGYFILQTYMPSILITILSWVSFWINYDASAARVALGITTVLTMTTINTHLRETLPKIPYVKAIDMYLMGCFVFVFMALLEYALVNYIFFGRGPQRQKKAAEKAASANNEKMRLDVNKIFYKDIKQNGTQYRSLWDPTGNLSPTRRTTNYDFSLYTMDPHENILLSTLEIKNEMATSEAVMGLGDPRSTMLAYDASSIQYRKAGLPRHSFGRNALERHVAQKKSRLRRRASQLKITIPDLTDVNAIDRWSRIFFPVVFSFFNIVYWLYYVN", "T1 sequence (P18507 40-475)": "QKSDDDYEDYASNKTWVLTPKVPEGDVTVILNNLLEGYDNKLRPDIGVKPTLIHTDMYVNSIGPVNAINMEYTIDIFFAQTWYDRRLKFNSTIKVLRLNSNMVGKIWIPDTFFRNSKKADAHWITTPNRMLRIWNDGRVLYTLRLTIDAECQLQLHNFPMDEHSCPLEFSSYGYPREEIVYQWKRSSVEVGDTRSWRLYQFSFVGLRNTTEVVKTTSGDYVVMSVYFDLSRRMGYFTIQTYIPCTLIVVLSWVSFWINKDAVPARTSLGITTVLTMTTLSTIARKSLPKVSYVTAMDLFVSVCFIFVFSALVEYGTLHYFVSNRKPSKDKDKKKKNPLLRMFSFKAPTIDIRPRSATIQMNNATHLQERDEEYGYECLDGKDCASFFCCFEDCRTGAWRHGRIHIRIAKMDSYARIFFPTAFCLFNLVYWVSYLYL", "assay": "Automated patch-clamp (QPatch) modulation of GABA-activated currents in cells stably transfected with GABAA (α3β2γ2) channels", "type": "cell-based", "conditions": "stably transfected Ltk cells, 2.0 μM GABA (submaximal), whole-cell patch, holding potential −80 mV; Emax = upper asymptote of dose-response fit", "protocol": "Modulatory effects of the compounds of this disclosure were investigated using cells stably transfected with GABA-activated channels of the GABAA (α3β2γ2) subtype together with submaximal GABA concentrations. Expression of GABA receptor were induced by adding Dexamethasone to the cells for 24 to 48 h before experimentation. In general, cells were passaged at a confluence of about 80 to 90%. For electrophysiological measurements cells were harvested at a confluence of about 80 to 90% from sterile culture flasks containing culture complete medium. Cells were transferred as suspension in PBS to the QPatch 16X or QPatch HTX system to the centrifuge/washer directly. Cells were incubated at 37° C. in a humidified atmosphere with 5% CO2 (rel. humidity about 95%). The cells were continuously maintained in and passaged in sterile culture flasks containing a 1:1 mixture of Dulbecco's modified eagle medium and nutrient mixture D-MEM/F-12 (1×, liquid, with L-Glutamine), supplemented with 10% foetal bovine serum and 1.0% Penicillin/Streptomycin solution and neomycin. The 1× bath solution was made at least every 5 days out of a sterile lox bath solution, which had been prepared prior to the experimental start of the present study and stored at 1° C. to 9° C. The final bath solution included Sodium Chloride 137 mM, Potassium Chloride 4 mM, Calcium Chloride 1.8 mM, Magnesium Chloride 1 mM, HEPES 10 mM, D-Glucose 10 mM, pH (NaOH) 7.4. The 1× intracellular solution was thawed every day and includes Potassium Chloride 130 mM, Magnesium Chloride 1 mM, Mg-ATP 5 mM, HEPES 10 mM, EGTA 5 Mm, pH (KOH) 7.2. Automated patch-clamping: Cells were transferred as suspension in serum-free medium to the QPatch HTX system and kept in the cell storage tank during experiments. All solutions applied to cells including the intracellular solution were maintained at room temperature (19° C. to 30° C.). After formation of a Gigaohm seal between the patch electrodes and transfected individual Ltk cells were ruptured to assure electrical access to the cell interior (whole-cell patch-configuration). Inward currents were measured upon application of 2.0 μM GABA to patch-clamped cells for 4 s. During the entire experiment the cells were voltage-clamped at a holding potential of −80 mV. For the analysis of test items, GABAA receptors were stimulated by 2.0 μM GABA and test item combinations described below. Thirty-second prewash steps with test items was performed in between two agonist applications. The dose-response curve was fit with a sigmoidal three parameter equation current=Emax/1+10^((Log EC50−X)*H) where X is the compound concentration, Emax the upper asymptote, EC50 the concentration of test item at half maximal effect, and H is the Hill coefficient. SigmaPlot 11.0 was used for construction of curve.", "units": {"Emax": "%"}, "values": [{"compound": "O=C(O)c1cc2n(n1)-c1ccc(Cl)cc1C(c1ccccc1F)=NC2", "note": "[Example 1, 8-chloro-6-(2-fluorophenyl)-4H-pyrazolo[1,5-a][1,4]benzodiazepine-2-carboxylic acid]", "Emax": "> 100"}, {"compound": "C#Cc1ccc2c(c1)C(c1ccccc1F)=NCc1cc(C(=O)O)nn1-2", "note": "[Example 2, 8-ethynyl-6-(2-fluorophenyl)-4H-pyrazolo[1,5-a][1,4]benzodiazepine-2-carboxylic acid]", "Emax": "> 100"}, {"compound": "O=C(O)c1cc2n(n1)-c1ccc(C3CC3)cc1C(c1ccccc1F)=NC2", "note": "[Example 3, 8-cyclopropyl-6-(2-fluorophenyl)-4H-pyrazolo[1,5-a][1,4]benzodiazepine-2-carboxylic acid]", "Emax": "> 100"}, {"compound": "Cc1ccc2c(c1)C(c1ccccc1F)=NCc1cc(C(=O)O)nn1-2", "note": "[Example 4, 6-(2-fluorophenyl)-8-methyl-4H-pyrazolo[1,5-a][1,4]benzodiazepine-2-carboxylic acid]", "Emax": "> 100"}, {"compound": "O=C(O)c1cc2n(n1)-c1ccccc1C(c1ccccc1F)=NC2", "note": "[Example 5, 6-(2-fluorophenyl)-4H-pyrazolo[1,5-a][1,4]benzodiazepine-2-carboxylic acid]", "Emax": "< 50"}, {"compound": "O=C(O)c1cc2n(n1)-c1ccc(-c3ccccc3)cc1C(c1ccccc1F)=NC2", "note": "[Example 6, 6-(2-fluorophenyl)-8-phenyl-4H-pyrazolo[1,5-a][1,4]benzodiazepine-2-carboxylic acid]", "Emax": "< 50"}, {"compound": "O=C(O)c1cc2n(n1)-c1ccc(Br)cc1C(c1ccccc1F)=NC2", "note": "[Example 7, 8-bromo-6-(2-fluorophenyl)-4H-pyrazolo[1,5-a][1,4]benzodiazepine-2-carboxylic acid]", "Emax": "> 100"}, {"compound": "C[Si](C)(C)c1ccc2c(c1)C(c1ccccc1F)=NCc1cc(C(=O)O)nn1-2", "note": "[Example 8, 6-(2-fluorophenyl)-8-trimethylsilyl-4H-pyrazolo[1,5-a][1,4]benzodiazepine-2-carboxylic acid]", "Emax": "< 50"}, {"compound": "O=C(O)c1cc2n(n1)-c1ccc(SC(F)(F)F)cc1C(c1ccccc1F)=NC2", "note": "[Example 9, 6-(2-fluorophenyl)-8-(trifluoromethylsulfanyl)-4H-pyrazolo[1,5-a][1,4]benzodiazepine-2-carboxylic acid]", "Emax": "> 100"}, {"compound": "O=C(O)c1cc2n(n1)-c1ccc(C(F)(F)F)cc1C(c1ccccc1F)=NC2", "note": "[Example 10, 6-(2-fluorophenyl)-8-(trifluoromethyl)-4H-pyrazolo[1,5-a][1,4]benzodiazepine-2-carboxylic acid]", "Emax": "> 100"}, {"compound": "O=C(O)c1cc2n(n1)-c1ccc(OC(F)(F)F)cc1C(c1ccccc1F)=NC2", "note": "[Example 11, 6-(2-fluorophenyl)-8-(trifluoromethoxy)-4H-pyrazolo[1,5-a][1,4]benzodiazepine-2-carboxylic acid]", "Emax": "> 100"}, {"compound": "O=C(O)c1cc2n(n1)-c1cc(Cl)ccc1C(c1ccccc1F)=NC2", "note": "[Example 12]", "Emax": "< 50"}, {"compound": "O=C(O)c1cc2n(n1)-c1ccc(Cl)cc1C(c1ccccc1Br)=NC2", "note": "[Example 13, 6-(2-bromophenyl)-8-chloro-4H-pyrazolo[1,5-a][1,4]benzodiazepine-2-carboxylic acid]", "Emax": "> 100"}, {"compound": "O=C(O)c1cc2n(n1)-c1ccc(Cl)cc1C(c1c(F)cccc1F)=NC2", "note": "[Example 14, 8-chloro-6-(2,6-difluorophenyl)-4H-pyrazolo[1,5-a][1,4]benzodiazepine-2-carboxylic acid]", "Emax": "51 to 100"}, {"compound": "O=C(O)c1cc2n(n1)-c1ccc(Cl)cc1C(c1ccccc1Cl)=NC2", "note": "[Example 15, 8-chloro-6-(2-chlorophenyl)-4H-pyrazolo[1,5-a][1,4]benzodiazepine-2-carboxylic acid]", "Emax": "> 100"}, {"compound": "O=C(O)c1cc2n(n1)-c1ccc(Cl)cc1C(c1cccc(F)c1F)=NC2", "note": "[Example 16]", "Emax": "> 100"}, {"compound": "O=C(O)c1cnn2c1CN=C(c1ccccc1F)c1cc(Cl)ccc1-2", "note": "[Example 17, 12-Chloro-9-(2-fluorophenyl)-2,3,8-triazatricyclo[8.4.0.0^2,6]tetradeca-1(10),3,5,8,11,13-hexaene-5-carboxylic Acid]", "Emax": "> 100"}, {"compound": "Cc1ccc2c(c1)C(c1ccccc1F)=NCc1c(C(=O)O)cnn1-2", "note": "[Example 18, 6-(2-fluorophenyl)-8-methyl-4H-pyrazolo[1,5-a][1,4]benzodiazepine-3-carboxylic acid]", "Emax": "> 100"}, {"compound": "Cc1c(C(=O)O)nn2c1CN=C(c1ccccc1F)c1cc(Cl)ccc1-2", "note": "[Example 19, 12-Chloro-9-(2-fluorophenyl)-5-methyl-2,3,8-triazatricyclo[8.4.0.0^2,6]tetradeca-1(10),3,5,8,11,13-hexaene-4-carboxylic Acid]", "Emax": "> 100"}, {"compound": "CC1N=C(c2ccccc2F)c2cc(Cl)ccc2-n2nc(C(=O)O)cc21", "note": "(centres unmarked) [Example 20, 12-Chloro-9-(2-fluorophenyl)-7-methyl-2,3,8-triazatricyclo[8.4.0.0^2,6]tetradeca-1(10),3,5,8,11,13-hexaene-4-carboxylic acid]", "Emax": "> 100"}, {"compound": "O=C(O)c1nn2c(c1Br)CN=C(c1ccccc1F)c1cc(Cl)ccc1-2", "note": "[Example 21, 3-bromo-8-chloro-6-(2-fluorophenyl)-4H-pyrazolo[1,5-a][1,4]benzodiazepine-2-carboxylic Acid]", "Emax": "> 100"}, {"compound": "O=C(O)c1nn2c(c1Cl)CN=C(c1ccccc1F)c1cc(Cl)ccc1-2", "note": "[Example 22, 3,8-dichloro-6-(2-fluorophenyl)-4H-pyrazolo[1,5-a][1,4]benzodiazepine-2-carboxylic acid]", "Emax": "51 to 100"}, {"compound": "O=C(O)c1cc2n(n1)-c1ccc(Cl)cc1C(c1ccccc1F)=[N+]([O-])C2", "note": "[Example 23, 8-chloro-6-(2-fluorophenyl)-5-oxido-4H-pyrazolo[1,5-a][1,4]benzodiazepin-5-ium-2-carboxylic Acid]", "Emax": "> 100"}, {"compound": "O=C(O)c1cc2n(n1)-c1ccc(Cl)cc1C(c1ccccc1F)=NC2O", "note": "(centres unmarked) [Example 24, 8-chloro-6-(2-fluorophenyl)-4-hydroxy-4H-benzo[f]pyrazolo[1,5-a][1,4]diazepine-2-carboxylic Acid]", "Emax": "< 50"}, {"compound": "NC(=O)NCCNC(=O)c1cc2n(n1)-c1ccc(Cl)cc1C(c1ccccc1F)=NC2", "note": "[Example 25, 8-chloro-6-(2-fluorophenyl)-N-(2-ureidoethyl)-4H-benzo[f]pyrazolo[1,5-a][1,4]diazepine-2-carboxamide]", "Emax": "51 to 100"}, {"compound": "NC(=O)NCCNC(=O)c1cnn2c1CN=C(c1ccccc1F)c1cc(Cl)ccc1-2", "note": "[Example 26, 8-chloro-6-(2-fluorophenyl)-N-(2-ureidoethyl)-4H-pyrazolo[1,5-a][1,4]benzodiazepine-3-carboxamide]", "Emax": "> 100"}, {"compound": "NS(=O)(=O)NCCNC(=O)c1cc2n(n1)-c1ccc(Cl)cc1C(c1ccccc1F)=NC2", "note": "[Example 27, 8-chloro-6-(2-fluorophenyl)-N-[2-(sulfamoylamino)ethyl]-4H-pyrazolo[1,5-a][1,4]benzodiazepine-2-carboxamide]", "Emax": "51 to 100"}, {"compound": "NS(=O)(=O)NCCNC(=O)c1cnn2c1CN=C(c1ccccc1F)c1cc(Cl)ccc1-2", "note": "[Example 28, 8-chloro-6-(2-fluorophenyl)-N-[2-(sulfamoylamino)ethyl]-4H-pyrazolo[1,5-a][1,4]benzodiazepine-3-carboxamide]", "Emax": "> 100"}, {"compound": "O=C(O)c1cc2n(n1)-c1ccc(Cl)cc1C(c1ccccc1)=NC2", "note": "[Example 29, 8-chloro-6-phenyl-4H-benzo[f]pyrazolo[1,5-a][1,4]diazepine-2-carboxylic acid]", "Emax": "> 100"}]}]}
